What follows are molecules tested on Aliivibrio fischeri (assay: Concentration required for 50% inhibition of 3-oxo-C6-HSL-induced luminescence of the biosensor strain).
For `O=C(CCCc1ccccc1)NC1CCOC1=O` (centres undefined), the IC50 was 2000 nM.
`COc1ccc(CC(=O)CC(=O)NC2CCOC2=O)cc1` (centres undefined) gave an IC50 of 3000 nM.
In the case of `O=C(CC(=O)NC1CCOC1=O)CC1CCCCC1` (centres undefined), the IC50 is reported as 1100 nM.
Molecule `O=C(CSCc1ccccc1)NC1CCOC1=O` (centres undefined) has an IC50 of 2000 nM.
Molecule `O=C(CC(=O)NC1CCOC1=O)Cc1ccc(Cl)cc1` (centres undefined) has an IC50 of 3000 nM.
`O=C(CC(=O)NC1CCOC1=O)Cc1cccc(Cl)c1` (centres undefined) was tested, and the IC50 was 4000 nM.
In the case of `O=C(CC(=O)NC1CCOC1=O)CC1CCCC1` (centres undefined), the IC50 is reported as 250 nM.
In the case of `CC(C)(C)CC(=O)CC(=O)NC1CCOC1=O` (centres undefined), the IC50 is reported as 15000 nM.
Molecule `O=C(CC(=O)NC1CCOC1=O)Cc1ccc(Br)cc1` (centres undefined) has an IC50 of 2000 nM.
`Cc1ccc(CC(=O)CC(=O)NC2CCOC2=O)cc1` (centres undefined) was tested, and the IC50 was 4000 nM.
In the case of `O=C(CC(=O)NC1CCOC1=O)Cc1ccc(F)cc1` (centres undefined), the IC50 is reported as 4000 nM.
In the case of `CCCC(=O)CC(=O)NC1CCOC1=O` (centres undefined), the IC50 is reported as 200 nM.
For `O=C(CC(=O)NC1CCOC1=O)Cc1ccccc1Cl` (centres undefined), the IC50 was 6000 nM.
`O=C(CC(=O)NC1CCOC1=O)Cc1ccccc1` (centres undefined) gave an IC50 of 2000 nM.
`O=C(CCCC1CCCCC1)NC1CCOC1=O` (centres undefined) was tested, and the IC50 was greater than 6000 nM.
`O=C(CC(=O)NC1CCOC1=O)Cc1ccc(C(F)(F)F)cc1` (centres undefined) gave an IC50 of 10000 nM.
Work on `CCCCCC(=O)NC1CCOC1=O` (centres undefined) yielded an IC50 greater than 9000 nM.
`CC(C)CC(=O)CC(=O)NC1CCOC1=O` (centres undefined) gave an IC50 of 500 nM.
Molecule `O=C(COCc1ccccc1)NC1CCOC1=O` (centres undefined) has an IC50 of 3000 nM.

Reference: ChEMBL document CHEMBL1135966, “New synthetic analogues of N-acyl homoserine lactones as agonists or antagonists of transcriptional regulators involved in bacterial quorum sensing” (Bioorg Med Chem Lett, 2002)
